Data as given in patent US8394971B2, “Indole derivatives as selective androgen receptor modulators (SARMS)” (Janssen Pharmaceutica N.V., priority 2004, dated 2013).
Where “and” joins values, the source holds several entries; their conditions need not be identical. Equal values may be shown once.

Key:
[1] = biological target: T1, androgen receptor (adenovirus AdEasy+rAR in COS-7 cells) (Rattus norvegicus, UniProt P15207); assay: COS-7 Whole-Cell Androgen Receptor Binding Assay, Adenovirus Transduction; conditions: COS binding; 3000 nM unless otherwise noted
T1 construct: expressed in transfected cells
T1 sequence (P15207 1-902): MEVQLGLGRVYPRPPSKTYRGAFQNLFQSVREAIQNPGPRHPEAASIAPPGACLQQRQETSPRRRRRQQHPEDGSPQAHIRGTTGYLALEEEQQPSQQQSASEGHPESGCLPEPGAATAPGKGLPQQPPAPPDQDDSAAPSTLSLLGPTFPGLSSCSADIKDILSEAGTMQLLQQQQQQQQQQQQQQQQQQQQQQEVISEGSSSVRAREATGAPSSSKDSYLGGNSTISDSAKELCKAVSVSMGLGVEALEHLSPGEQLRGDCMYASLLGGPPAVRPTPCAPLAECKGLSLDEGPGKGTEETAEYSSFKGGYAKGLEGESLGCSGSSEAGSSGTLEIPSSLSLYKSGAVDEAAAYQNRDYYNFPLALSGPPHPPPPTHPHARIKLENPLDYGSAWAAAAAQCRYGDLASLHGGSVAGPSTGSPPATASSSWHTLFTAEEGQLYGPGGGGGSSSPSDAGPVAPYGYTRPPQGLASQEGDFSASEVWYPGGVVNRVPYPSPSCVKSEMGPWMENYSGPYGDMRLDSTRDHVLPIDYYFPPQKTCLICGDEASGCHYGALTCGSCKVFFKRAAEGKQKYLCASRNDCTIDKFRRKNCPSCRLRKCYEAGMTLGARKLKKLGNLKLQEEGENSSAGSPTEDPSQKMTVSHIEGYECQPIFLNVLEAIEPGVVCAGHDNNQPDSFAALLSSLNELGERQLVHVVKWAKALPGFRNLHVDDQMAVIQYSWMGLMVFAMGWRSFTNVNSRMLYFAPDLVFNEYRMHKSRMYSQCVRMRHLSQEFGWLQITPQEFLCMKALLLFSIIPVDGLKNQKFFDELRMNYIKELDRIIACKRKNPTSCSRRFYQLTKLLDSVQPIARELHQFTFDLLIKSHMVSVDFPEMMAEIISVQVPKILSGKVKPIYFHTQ

[2] = biological target: T2, androgen receptor (adenovirus AdEasy+rAR in L929 cells) (Rattus norvegicus, UniProt P15207); assay: L929 Androgen Receptor Functional Assay, Adenovirus Transduction; format: cell-based; conditions: for % Activity: L929 agonist testing; for inhibition at 3 µM: L929, L929 antagonist testing with R1881
T2 construct: expressed in transfected cells
T2 sequence (P15207 1-902): T1 sequence (P15207 1-902)
How it was run: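 Luminescent reporter readout after 48 h at 37 °C: rat AR delivered by adenovirus (AdEasy+rAR, moi 1:500) into L929 cells grown without phenol red in charcoal-treated serum. Antagonist wells also received R1881 (2.5× dilution at 2.5 nM).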

[3] = tested on: testosterone-enhanced ventral prostate and seminal vesicle weights in castrated male Sprague Dawley rats; assay: Ventral Prostate and Seminal Vesicle Weight In Vivo Assay; design: species or system rat; conditions: immature castrated rats; once daily for five days, usually orally at 40 mg/kg, with testosterone propionate 2 mg/kg s.c.
How it was run: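 Immature (~50 g) castrated Sprague Dawley rats dosed once daily for five days with compound (usually oral, 40 mg/kg, cyclodextrin or methylcellulose vehicle) plus testosterone propionate 2 mg/kg s.c. Wet ventral prostate and seminal vesicle weights taken on day six; activity judged by prostate weight or body-weight-adjusted % inhibition.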

| Compound | inhibition at 3 µM [1] [%] | % Activity ([2]; 3000 nM) [%] | active / inactive (inhibition of testosterone-enhanced prostate weight) [3] | % Inhibition [1] | % Activity ([2]; 3000 nM, 3 µM) | inhibition at 3 µM ([2]; 3000 nM) [%] | % Activity ([2]; @ 8000 nM) |
| --- | --- | --- | --- | --- | --- | --- | --- |
| CCS(=O)(=O)CC(C)(O)c1cc2cc([N+](=O)[O-])c(C(F)(F)F)cc2[nH]1 (stereo not shown) [compound 143] | 68 | 0 | active | – | – | – | – |
| CCC(O)(CSCC(F)(F)F)c1cc2cc([N+](=O)[O-])c(C(F)(F)F)cc2[nH]1 (stereo not shown) [compound 185] | 92 | 2 | active | – | – | – | – |
| CSCC(C)(O)c1cc2cc(Cl)c(C(F)(F)F)cc2[nH]1 (stereo not shown) [compound 135] | 98 | 0 | inactive | – | – | – | – |
| CC(O)(CSCc1cccs1)c1cc2cc([N+](=O)[O-])c(C(F)(F)F)cc2[nH]1 (stereo not shown) [compound 197] | 86 | 2 | inactive | – | – | – | – |
| CCC(O)(CS(=O)(=O)CC(F)(F)F)c1cc2cc([N+](=O)[O-])c(C(F)(F)F)cc2[nH]1 (stereo not shown) [compound 191] | 65 | 2 | active | – | – | – | – |
| CCC(O)(CSCC(F)(F)F)c1cc2cc(F)c(C(F)(F)F)cc2[nH]1 (stereo not shown) [compound 194] | 80 | 2 | inactive | – | – | – | – |
| CCCS(=O)(=O)CC(C)(O)c1cc2cc([N+](=O)[O-])c(C(F)(F)F)cc2[nH]1 (stereo not shown) [compound 177] | 90 | 2 | active | – | – | – | – |
| CCSCC(C)(OC)c1cc2cc(C#N)c(C(F)(F)F)cc2n1C (stereo not shown) [compound 235] | 78 | 3 | inactive | – | – | – | – |
| CCSCC(C)(O)c1cc2cc([N+](=O)[O-])cc(C(F)(F)F)c2[nH]1 (stereo not shown) [compound 212] | 86 | −3 | active | – | – | – | – |
| CCSCC(C)(O)c1[nH]c2cc(C(F)(F)F)c(C#N)cc2c1C (single isomer, unassigned) [Compound #233, 2-(2-Ethylsulfanyl-1-hydroxy-1-methyl-ethyl)-3-methyl-6-trifluoromethyl-1H-indole-5-carbonitrile] | – | – | active | 95% and 81% | 0% | – | – |
| CCSCC(C)(O)c1cc2cc(C#N)c(C(F)(F)F)cc2[nH]1 (single isomer, unassigned) [Compound #217, 2-(2-Ethylsulfanyl-1-hydroxy-1-methyl-ethyl)-6-trifluoromethyl-1H-indole-5-carbonitrile] | – | 5 | active | 38% and 69% | – | 87 | 0 @ 8000 nM % |
| CCCSCC(C)(O)c1cc2cc([N+](=O)[O-])c(C(F)(F)F)cc2[nH]1 (stereo not shown) [compound 168] | 60 | 3 | inactive | – | – | – | – |
| CCSCC(O)(CC)c1cc2cc([N+](=O)[O-])c(C(F)(F)F)cc2[nH]1 (stereo not shown) [compound 169] | 90 | 2 | active | – | – | – | – |
| CC(O)(CS(C)(=O)=O)c1cc2cc([N+](=O)[O-])c(C(F)(F)F)cc2[nH]1 (stereo not shown) [compound 140] | – | 0 | active | 51.5% | – | – | – |
| CSCC(C)(O)c1cc2cc(C#N)c(C(F)(F)F)cc2[nH]1 (stereo not shown) [compound 136] | 4.8 | 0 | active | – | – | – | – |
| CCS(=O)(=O)CC(C)(O)c1cc2cc(C#N)c(C(F)(F)F)cc2[nH]1 (single isomer, unassigned) [Compound #222, 2-(2-Ethanesulfonyl-1-hydroxy-1-methyl-ethyl)-6-trifluoromethyl-1H-indole-5-carbonitrile] | 42 | – | active | – | – | – | 0 @ 8000 nM % |
| CCC(O)(CSCC(F)(F)F)c1cc2cc(Cl)c(C(F)(F)F)cc2[nH]1 (stereo not shown) [compound 192] | 86 | 8 | active | – | – | – | – |
| CCSCC(O)c1cc2cc([N+](=O)[O-])c(C(F)(F)F)cc2[nH]1 (stereo not shown) [compound 158] | 62 | – | inactive | 56% | 3% and 2% | – | – |
| CCSCC(C)(O)c1cc2cc(F)c(Cl)cc2[nH]1 (racemic) [compound 206] | – | 5 | active | −40% | – | – | – |
| CCSCC(C)(O)c1cc2cc([N+](=O)[O-])c(C(F)(F)F)cc2n1C (racemic) [compound 165] | – | – | active | 69% | 1% | – | – |
| CCSCC(C)(O)c1cc2cc([N+](=O)[O-])c(C(F)(F)F)cc2[nH]1 (racemic) [compound 142] | – | – | active | 90% | 0% | 78 | – |
| CC(O)(CSCC(F)(F)F)c1[nH]c2cc(C(F)(F)F)c([N+](=O)[O-])cc2c1I (stereo not shown) [compound 213] | 71 | – | active | – | – | – | −1 @ 8000 nM % |
| CC[S+]([O-])C[C@](C)(O)c1cc2cc([N+](=O)[O-])c(C(F)(F)F)cc2[nH]1 (stereo in doubt) [Compound #155, 1-Ethanesulfinyl-2-(5-nitro-6-trifluoromethyl-1H-indol-2-yl)-propan-2-ol] | 35 | 2 | inactive | – | – | – | – |
| CC(O)(CSc1ccc(N)cc1)c1cc2cc(Cl)c(C(F)(F)F)cc2[nH]1 (stereo not shown) [compound 104] | 94 | 9 | inactive | – | – | – | – |
| CCCCSCC(C)(O)c1cc2cc([N+](=O)[O-])c(C(F)(F)F)cc2[nH]1 (stereo not shown) [compound 200] | 97 | 1 | inactive | – | – | – | – |
| CCSCC(C)(O)c1cc2cc([N+](=O)[O-])c(C(F)(F)F)cc2n1S(C)(=O)=O (stereo not shown) [compound 141] | 42 | 0 | inactive | – | – | – | – |
| CC(O)(CS(C)(=O)=O)c1cc2cc(Cl)c(C(F)(F)F)cc2[nH]1 (stereo not shown) [compound 138] | 78 | 0 | inactive | – | – | – | – |
